Results: article PMC12649549, “Sequence Permutation Generated Lysine and Tryptophan-Rich Antimicrobial Peptides with Enhanced Therapeutic Index” (Antibiotics, 2025)
Where two headings read alike, the source gives them in different places.

Columns and labels:
[1] = test system: Escherichia coli (ATCC 25922)
Experimental: (§1) The antibacterial and salt-resistant activity of the peptides was tested using Escherichia coli (ATCC 25922), Pseudomonas aeruginosa Migula (ATCC 27853), Acinetobacter sp. (BCRC number 14B0091, BCRC number 14B0097, and BCRC number 14B0100), and Staphylococcus aureus sp. strains (ATCC 25923, ATCC 33591, ATCC 33592, ATCC 33593, and ATCC 6538). All bacteria were obtained from the Food Industry Research and Development Institute (Hsinchu, Taiwan) and cultured in sterilized Müller-Hinton (MH) broth at 37 °C and 200 rpm for 8 h. The inoculum concentrations were determined by measuring the optical density at 600 nm (OD 600 = 1, approximately 10^8 CFU/mL) using an Ultrospec 2100 pro UV-Visible spectrophotometer (Biochrom Ltd., Cambridge, UK) after 8 h of culture.
(§2) The antibacterial activities of the peptides in Müller-Hinton (MH) broth and modified LYM broth were determined using the standard broth microdilution method as per Clinical and Laboratory Standards Institute (CLSI) guidelines. The LYM broth was prepared with specific components and adjusted to different conditions, including varying concentrations of NaCl and MgCl2, and different pH levels. To prepare the LYM broth, 5.4 mM KCl, 5.6 mM Na2HPO4, 0.5 mM MgSO4, and 1.0 mM sodium citrate were added. Additionally, 0.4 mg of ZnCl2, 2.0 mg of FeCl3·6H2O, 0.1 mg of CuSO4·5H2O, 0.1 mg of MnSO4·H2O, 0.1 mg of Na2B4O7∙10H2O, 700 mg of amino acid mixtures without tryptophan (Takara Bio Inc., San Jose, CA, USA), and 20 mg of L-tryptophan were added per liter of medium. The pH was adjusted to 7.4, and a vitamin mixture (100X, Sigma) and glucose concentration of 2% were added. For different conditions of LYM broth, NaCl concentrations of 300, 200, 150, and 50 mM, MgCl2 concentrations of 2.5, 1.5, and 0.5 mM, and pH levels of 6.5, 5.5, and 4.5 were adjusted. Bacterial strains were incubated in MH broth overnight, regrown, and diluted to a final concentration of 5 × 10^5 CFU/mL. Peptides were added to each well at final concentrations of 50, 25, 12.5, 6.25, 3.13, 1.56, and 0.78 µg/mL, and 99 µL of diluted microbes was loaded into each well of a polypropylene 96-well plate. […] The Morpheus HeatMap software (https://software.broadinstitute.org/morpheus/) was used to display MIC values on a color scale. All experiments were independently repeated three times.

[2] = test system: A. baumannii 14B00100 (Acinetobacter sp., BCRC number 14B0100)
Experimental: as §1, §2

[3] = test system: A. baumannii 14B0091 (Acinetobacter sp., BCRC number 14B0091)
Experimental: as §1, §2

S. aureus ATCC 33591 = test system: S. aureus ATCC 33591
Experimental: as §1, §2

S. aureus ATCC 6538 = test system: S. aureus ATCC 6538
Experimental: as §1, §2

S. aureus ATCC 25923 = test system: S. aureus ATCC 25923
Experimental: as §1, §2

Gram-negative bacteria = experiment: Geometric mean MIC and therapeutic index, Gram-negative bacteria; type: cell-based; conditions: Gram-negative bacteria
Experimental: In this study, we aimed to investigate the potential of W5K series peptides for therapeutic use. To evaluate their efficacy for antibacterial therapy, we used the Therapeutic Index (TI) as a measure of their cell selectivity. The TI was calculated as the ratio of the concentration causing 10% hemolysis of human red blood cells (HC10) to the geometric mean minimum inhibitory concentration (GM) of the peptides against both Gram-negative and Gram-positive bacteria. This parameter was used to quantitatively assess the balance between antibacterial potency and cytotoxicity among the W5K derivatives.
as §2

[4] = LYM broth, 0 mM NaCl, 16 h, 37 °C
[5] = LYM broth, 50 mM NaCl, 16 h, 37 °C
[6] = LYM broth, 100 mM NaCl, 16 h, 37 °C
[7] = LYM broth, 200 mM (NaCl), 16 h, 37 °C
[8] = LYM broth, 300 mM (NaCl), 16 h, 37 °C
[9] = MH broth, 5 × 10^5 CFU/mL, 16 h, 37 °C, repeated three times

Ac-AKKKKWRKWLKWL-NH2 [Peptide W5K10]
MIC [1, 4]: 3.13 µg/mL
MIC ([1]; LYM broth, 0.5 mM MgCl2): 3.13 µg/mL
MIC ([1]; LYM broth, 1.5 mM MgCl2): 6.25 µg/mL
MIC ([1]; LYM broth, 2.5 mM MgCl2): 6.25 µg/mL
MIC [1, 5]: 3.13 µg/mL
MIC [1, 6]: 12.5 µg/mL
MIC [1, 7]: 12.5 µg/mL
MIC [1, 8]: 25 µg/mL
MIC ([1]; LYM broth, pH 4.5): 3.13 µg/mL
MIC ([1]; LYM broth, pH 5.5): 1.56 µg/mL
MIC ([1]; LYM broth, pH 6.5): 1.56 µg/mL
MIC [1, 9]: 6.25 µg/mL
MIC [2, 4]: 1.56 µg/mL
MIC ([2]; LYM broth, 0.5 mM MgCl2): 1.56 µg/mL
MIC ([2]; LYM broth, 1.5 mM MgCl2): 1.56 µg/mL
MIC ([2]; LYM broth, 2.5 mM MgCl2): 3.13 µg/mL
MIC [2, 5]: 1.56 µg/mL
MIC [2, 6]: 1.56 µg/mL
MIC [2, 7]: 1.56 µg/mL
MIC [2, 8]: 3.13 µg/mL
MIC ([2]; LYM broth, pH 4.5): 1.56 µg/mL
MIC ([2]; LYM broth, pH 5.5): 1.56 µg/mL
MIC ([2]; LYM broth, pH 6.5): 1.56 µg/mL
MIC [2, 9]: 3.13 µg/mL
MIC [3, 4]: 1.56 µg/mL
MIC ([3]; LYM broth, 0.5 mM MgCl2): 1.56 µg/mL
MIC ([3]; LYM broth, 1.5 mM MgCl2): 1.56 µg/mL
MIC ([3]; LYM broth, 2.5 mM MgCl2): 3.13 µg/mL
MIC [3, 5]: 1.56 µg/mL
MIC [3, 6]: 1.56 µg/mL
MIC [3, 7]: 1.56 µg/mL
MIC [3, 8]: 3.13 µg/mL
MIC ([3]; LYM broth, pH 4.5): 3.13 µg/mL
MIC ([3]; LYM broth, pH 5.5): 1.56 µg/mL
MIC ([3]; LYM broth, pH 6.5): 1.56 µg/mL
MIC [3, 9]: 1.56 µg/mL
MIC (S. aureus ATCC 33591; [4]): 3.13 µg/mL
MIC (S. aureus ATCC 33591; LYM broth, 0.5 mM MgCl2): 3.13 µg/mL
MIC (S. aureus ATCC 33591; LYM broth, 1.5 mM MgCl2): 3.13 µg/mL
MIC (S. aureus ATCC 33591; LYM broth, 2.5 mM MgCl2): 6.25 µg/mL
MIC (S. aureus ATCC 33591; [5]): 6.25 µg/mL
MIC (S. aureus ATCC 33591; [6]): 6.25 µg/mL
MIC (S. aureus ATCC 33591; [7]): 12.5 µg/mL
MIC (S. aureus ATCC 33591; [8]): 25 µg/mL
MIC (S. aureus ATCC 33591; LYM broth, pH 4.5): 6.25 µg/mL
MIC (S. aureus ATCC 33591; LYM broth, pH 5.5): 3.13 µg/mL
MIC (S. aureus ATCC 33591; LYM broth, pH 6.5): 3.13 µg/mL
MIC (S. aureus ATCC 33591; [9]): 12.5 µg/mL
MIC (S. aureus ATCC 6538; [4]): 1.56 µg/mL
MIC (S. aureus ATCC 6538; LYM broth, 0.5 mM MgCl2): 1.56 µg/mL
MIC (S. aureus ATCC 6538; LYM broth, 1.5 mM MgCl2): 1.56 µg/mL
MIC (S. aureus ATCC 6538; LYM broth, 2.5 mM MgCl2): 1.56 µg/mL
MIC (S. aureus ATCC 6538; [5]): 1.56 µg/mL
MIC (S. aureus ATCC 6538; [6]): 3.13 µg/mL
MIC (S. aureus ATCC 6538; [7]): 6.25 µg/mL
MIC (S. aureus ATCC 6538; [8]): 12.5 µg/mL
MIC (S. aureus ATCC 6538; LYM broth, pH 4.5): 6.25 µg/mL
MIC (S. aureus ATCC 6538; LYM broth, pH 5.5): 3.13 µg/mL
MIC (S. aureus ATCC 6538; LYM broth, pH 6.5): 1.56 µg/mL
MIC (S. aureus ATCC 6538; [9]): 6.25 µg/mL
MIC (S. aureus ATCC 25923; [4]): 3.13 µg/mL
MIC (S. aureus ATCC 25923; LYM broth, 0.5 mM MgCl2): 1.56 µg/mL
MIC (S. aureus ATCC 25923; LYM broth, 1.5 mM MgCl2): 3.13 µg/mL
MIC (S. aureus ATCC 25923; LYM broth, 2.5 mM MgCl2): 3.13 µg/mL
MIC (S. aureus ATCC 25923; [5]): 3.13 µg/mL
MIC (S. aureus ATCC 25923; [6]): 6.25 µg/mL
MIC (S. aureus ATCC 25923; [7]): 12.5 µg/mL
MIC (S. aureus ATCC 25923; [8]): 25 µg/mL
MIC (S. aureus ATCC 25923; LYM broth, pH 4.5): 3.13 µg/mL
MIC (S. aureus ATCC 25923; LYM broth, pH 5.5): 3.13 µg/mL
MIC (S. aureus ATCC 25923; LYM broth, pH 6.5): 3.13 µg/mL
MIC (S. aureus ATCC 25923; [9]): 6.25 µg/mL
GM G− (geometric mean of the MIC values) (Gram-negative bacteria; MH broth, MIC >50 µg/mL counted as 100 µg/mL): 3.1 µg/mL
Therapeutic Index (TI) G− (Gram-negative bacteria; HC10/GM): 34.8
